The source of these data is patent publication US7105524B2, “Pesticidal and parasiticidal di-and trifluorosubstituted alkene compounds” (BASF Aktiengesellschaft, priority 2001, dated 2006).

Structures are written as SMILES.

The test system of assay [1] is root-knot nematode Meloidogyne sp. Briefly: Soil nematicide assay targeting root-knot nematode Meloidogyne sp on tomato (granular formulation). The format is in vivo. To be noted: 1 kg/ha, granular formulation of 5% active ingredient on gypsum carrier, infested soil, tomato plants, visual estimation. The protocol:
Soil nematicide assay targeting root-knot nematode Meloidogyne sp on tomato
The test compounds were applied as granular formulations of 5% active ingredient on a gypsum carrier to soil infested with root-knot nematodes. Tomato plants were transplanted into the soil. After galling developed in untreated control plants, tomato plants were harvested and the roots assessed for root knot galling. Based on visual estimation, the percentage of the tomato root-mass that was galled was determined. Percent control root-knot was calculated for the treated plants relative to untreated control plants using the following formula: % control of root knot galling=100×((galling level of untreated plants−galling level of treated plants)/galling level of untreated plants)
In this test, compound A which is known from EP-A 1 000 946 as example 1 acted as comparison active ingredient.

Assay [2] concerns root-knot nematode Meloidogyne incognita. The experiment in a line: Soil nematicide assay targeting root-knot nematode Meloidogyne incognita on tomato (soil drench). The format is in vivo. The following applies: tomato plants, one month after inoculation with 1000 J2 larvae. An excerpt: Soil nematicide assay targeting root-knot nematode Meloidogyne incognita on tomato The test compounds were solubilized in acetone and diluted with water and surfactant to the required test concentrations. The test solution was applied as a soil drench to transplanted tomato plants in cells with sandy loam mixed with sand. One thousand root-knot J2 larvae were applied as an aqueous suspension drenched on the soil surface. The plants were maintained in the greenhouse and, one month after inoculation, the plant roots were washed free of soil. The root-knot galls on the root system of each plant were counted. Treatments were replicated three times. Percent control of root-knot was calculated for the treated plants relative to control plants treated with the acetone-surfactant carrier using the following formula: % control of root knot galls=100×((median number of galls on control plants−median number of galls on treated plants)/median number of galls on control plants) In this test, compound A which is known from EP-A 1 000 946 as example 1 acted as comparison active ingredient.

Take `FC(F)=C(F)CCSc1nc2cccnc2s1` [I.1—1, 2-(3,4,4-Trifluoro-but-3-enylsulfanyl)-thiazolo[5,4-b]pyridine]: the “% control of root knot galling” value in assay [1] is 47%. Besides, the “% control of root knot galls” value came to 94% in assay [2] (0.16 kg/ha) and 100% in assay [2] (0.63 kg/ha).
For `FC(F)=C(F)CCSc1nc2ncccc2s1` [compound A], in assay [1], the “% control of root knot galling” value is given as 25%. The “% control of root knot galls” value in assay [2] (0.16 kg/ha) was found to be 13%; in assay [2] (0.63 kg/ha), 71%.
